In US20250295639A1, “METHODS FOR TREATING HEART DISEASES” (Cytokinetics, Incorporated, priority 2024, published 2025):
Where “and” joins values, the source holds several entries; their conditions need not be identical. Identical values can stand only once.

Tested on: patients with symptomatic oHCM
Experiment: SEQUOIA-HCM phase 3 trial: echocardiography (LVOT gradients, cardiac structure and function)
Format: in vivo, human
Conditions: for LA Volume Index / LV Ejection Fraction / LV Mass Index / LV Maximal Wall Thickness: Non-CMR Cohort N = 225 (Aficamten N = 117)
Text: The following example describes a phase 3, multi-center, randomized, double-blind, placebo-controlled trial to evaluate the efficacy and safety of aficamten in adults with symptomatic hypertrophic cardiomyopathy and left ventricular outflow tract obstruction. This trial evaluated the effects of treatment with aficamten over a 24-week period on cardiopulmonary exercise capacity and health status in patients with symptomatic oHCM. This trial was intended to establish the efficacy and safety of aficamten with respect to improvements in exercise capacity and patient symptoms, as well as reduction in left ventricular outflow tract gradient (LVOT-G) in patients with oHCM.
This was a Phase 3 randomized, placebo-controlled, double-blind, multi-center trial in patients with symptomatic oHCM. Approximately 270 eligible patients were to be randomized in a 1:1 ratio to receive aficamten or placebo. Doses of 5, 10, 15, or 20 mg or matching placebo were administered in an escalating manner using echocardiography to guide dose titration. Randomization was stratified by use of beta blockers and CPET exercise modality.
The trial comprised three periods. The screening period was up to 6 weeks in duration. The double-blind placebo-controlled treatment period lasted 24 weeks. Following the final dose of aficamten, there was a 4-week safety follow-up period. Aficamten was administered orally once daily. During the initial six weeks of the treatment period, aficamten doses were individually titrated at Weeks 2, 4, and 6 using echocardiography. […] An echocardiogram was performed at each subsequent visit during the trial and the dose down-titrated if necessary. The primary endpoint of pVO2 was measured by CPET at screening and at end of treatment (Week 24). If applicable, patients continued taking background HCM medications consistent with regional clinical practice guidelines during the trial.
Echocardiography. Echocardiography was done during screening and prior to dosing on Day 1. Echocardiography was also performed 2 hours after dosing in the clinic on Weeks 2, 4, 6, 8, 12, 16, 20, 24, and 28.
Certified sonographers performed echocardiography using standard high-quality, high-fidelity machines. Whenever possible, the same sonographer performed all studies for a single patient. Echocardiograms were performed after the patient had been resting in a supine position for at least 10 minutes and in accordance with the echocardiography manual. Instructions for the performance of the Valsalva maneuver and imaging the LVOT-G were also included in the echocardiography manual.
Echocardiographic parameters measured at least included the left ventricular parameters (resting left ventricular outflow tract pressure gradient (LVOT-G), post-Valsalva LVOT-G, LVEF, LVFS, global longitudinal strain (GLS), left ventricular end diastolic diameter (LVEDD), left ventricular end diastolic volume (LVEDV), left ventricular end systolic diameter (LVESD), left ventricular end systolic volume (LVESV), left ventricular cardiac output (LVCO), LV Stroke Volume, LVOT velocity time integral (VTI), interventricular septum thickness (IVST), isovolumic contraction time (IVCT), IVRT, E/E, ratio (septal and lateral), and left atrial volume (LAV)) in addition to right heart function metrics detailed in the echocardiography protocol.
All echocardiograms (including unscheduled) were sent to the core laboratory for interpretation. On-site interpretation of LVEF and LVOT-G were used for dose escalation and reduction decisions via IWRS. The core laboratory quantification of the echocardiograms was used for all statistical analyses.
Baseline values are presented as mean±SD. Placebo corrected differences are presented as mean±95% CI and adjusted for treatment and stratification by beta-blockers and exercise mode (bicycle vs treadmill). […]

[1] = Echo Measurements, Non-CMR Cohort N = 225, vs placebo
[2] = Treatment (Week 24), listed as Aficamten

Which “patients of the SAM-resolution group reverting to baseline mitral valve SAM after washout” value (50/61) does the source give for CCc1nc(-c2ccc3c(c2)CC[C@H]3NC(=O)c2cnn(C)c2)no1 [aficamten, (R)—N-(5-(5-ethyl-1,2,4-oxadiazol-3-yl)-2,3-dihydro-1H-inden-1-yl)-1-methyl-1H-pyrazole-4-carboxamide] here?
Its value is 82%.

And the “patients with complete resolution of mitral valve SAM” value (61/117, 24 weeks treatment)?
Its value is 52%.

What about the “LA Volume Index” value (Echo Measurements, Baseline) of the same compound?
Its value is 40 ± 13 mL/m^2.

And the “LV Ejection Fraction” value (Echo Measurements, Baseline)?
Its value is 74.8 ± 5.6%.

What about the “LV Mass Index” value (Echo Measurements, Baseline) of the same compound?
The value was 131 ± 33 g/m^2.

And the “LV Maximal Wall Thickness” value (Echo Measurements, Baseline)?
Its value is 20.7 ± 3.0 mm.

And the “LA Volume Index” value (Echo Measurements, Week 24)?
Its value is 37 ± 11 mL/m^2.

What about the “LV Ejection Fraction” value (Echo Measurements, Week 24) of the same compound?
Its value is 67.8 ± 7.4%.

What about the “LV Mass Index” value (Echo Measurements, Week 24) of the same compound?
The value was 126 ± 33 g/m^2.

And the “LV Maximal Wall Thickness” value (Echo Measurements, Week 24)?
The value was 19.2 ± 3.2 mm.

What about the “LA Volume Index, Treatment Effect” value [1] of the same compound?
Its value is −5 mL/m^2.

And the “LV Ejection Fraction, Treatment Effect” value [1]?
The value was −5.3%.

What about the “LV Mass Index, Treatment Effect” value [1] of the same compound?
Its value is −13 g/m^2.

And the “LV Maximal Wall Thickness, Treatment Effect” value [1]?
Its value is −1.2 mm.

And the “Inferolateral wall: placebo-corrected treatment difference (95% CI)” value (Treatment (Week 24))?
Its value is −0.8 (−1.3, −0.3) mm.

And the “Interventricular septal wall: placebo-corrected treatment difference (95% CI)” value (Treatment (Week 24))?
Its value is −1.0 (−1.6, −0.3) mm.

What about the “LA volume index: placebo-corrected treatment difference (95% CI)” value (Treatment (Week 24)) of the same compound?
Its value is −3.8 ml/m2.

And the “LA width: placebo-corrected treatment difference (95% CI)” value (Treatment (Week 24))?
The value was −2.7 (−3.8, −1.7) mm.

And the “LV Fractional Shortening: placebo-corrected treatment difference (95% CI)” value (Treatment (Week 24))?
Its value is −4 (−7, −2) %.

And the “LV end diastolic dimension: placebo-corrected treatment difference (95% CI)” value (Treatment (Week 24))?
The value was −0.3 (−1.1, 0.5) mm.

And the “LV end diastolic volume index: placebo-corrected treatment difference (95% CI)” value (Treatment (Week 24))?
Its value is −0.2 (−1.5, 1.2) ml/m2.

What about the “LV end systolic dimension: placebo-corrected treatment difference (95% CI)” value (Treatment (Week 24)) of the same compound?
Its value is “+1.6 (0.7, 2.4) mm”.

And the “LV end systolic volume index: placebo-corrected treatment difference (95% CI)” value (Treatment (Week 24))?
Its value is “+1.7 ml/m2”.

What about the “LV mass index: placebo-corrected treatment difference (95% CI)” value (Treatment (Week 24)) of the same compound?
The value was −12.2 (−18.0, −6.5) g/m2.

What about the “LVOT Gradient, Valsalva: placebo-corrected treatment difference (95% CI)” value (Treatment (Week 24)) of the same compound?
Its value is −50 mmHg.

And the “LVOT Gradient, rest: placebo-corrected treatment difference (95% CI)” value (Treatment (Week 24))?
Its value is −40 mmHg.

And the “Lateral E/e′: placebo-corrected treatment difference (95% CI)” value (Treatment (Week 24))?
Its value is −3.9.

What about the “Lateral e′ velocity: placebo-corrected treatment difference (95% CI)” value (Treatment (Week 24)) of the same compound?
The value was “+1.2 cm/s”.

What about the “Max wall thickness: placebo-corrected treatment difference (95% CI)” value (Treatment (Week 24)) of the same compound?
The value was −1.2 (−1.8, −0.6) mm.

What about the “Peak A wave velocity: placebo-corrected treatment difference (95% CI)” value (Treatment (Week 24)) of the same compound?
Its value is −2.4 (−6.3, 1.5) cm/s.

And the “Peak E wave velocity: placebo-corrected treatment difference (95% CI)” value (Treatment (Week 24))?
The value was −7.5 (−11.7, −3.2) cm/s.

And the “RV s′ velocity: placebo-corrected treatment difference (95% CI)” value (Treatment (Week 24))?
Its value is −1.4(−2.0, −0.9) cm/s.

And the “Septal E/e′: placebo-corrected treatment difference (95% CI)” value (Treatment (Week 24))?
The value was −3.6.

And the “Septal e′ velocity: placebo-corrected treatment difference (95% CI)” value (Treatment (Week 24))?
Its value is “+0.5 cm/s”.

And the “TAPSE: placebo-corrected treatment difference (95% CI)” value (Treatment (Week 24))?
Its value is −2.1 (−3.2,−1.1) mm.

And the “LA volume index: placebo-corrected treatment difference (95% CI)” value [2]?
The value was −3.8 (−5.5, −2.2) ml/m2.

What about the “LV Ejection Fraction: placebo-corrected treatment difference (95% CI)” value [2] of the same compound?
The value was −4.8% and −5 (−6, −3) %.

And the “LV end systolic volume index: placebo-corrected treatment difference (95% CI)” value [2]?
The value was “+1.7 (1.0, 2.4) ml/m2”.

What about the “LV global circumferential strain (absolute): placebo-corrected treatment difference (95% CI)” value [2] of the same compound?
Its value is −3.7% and −3.7 (−5.6, −1.8) %.

What about the “LVOT Gradient, Valsalva: placebo-corrected treatment difference (95% CI)” value [2] of the same compound?
The value was −50 (−57, −44) mmHg.

And the “LVOT Gradient, rest: placebo-corrected treatment difference (95% CI)” value [2]?
The value was −40 (−46, −34) mmHg.

And the “Lateral E/e′: placebo-corrected treatment difference (95% CI)” value [2]?
The value was −3.9 (−5.0, −2.8).

What about the “Lateral e′ velocity: placebo-corrected treatment difference (95% CI)” value [2] of the same compound?
Its value is 1.2 (0.7, 1.6) cm/s.

And the “Septal E/e′: placebo-corrected treatment difference (95% CI)” value [2]?
The value was −3.6 (−4.8, −2.5).

What about the “Septal e′ velocity: placebo-corrected treatment difference (95% CI)” value [2] of the same compound?
The value was 0.5 (0.2, 0.8) cm/s.

What about the “Inferolateral wall: placebo-corrected treatment difference (95% CI)” value (Washout (Week 28)) of the same compound?
The value was −0.2 (−0.8, 0.3) mm.

And the “Interventricular septal wall: placebo-corrected treatment difference (95% CI)” value (Washout (Week 28))?
Its value is −0.3 (−1.0, 0.4) mm.

And the “LA volume index: placebo-corrected treatment difference (95% CI)” value (Washout (Week 28))?
Its value is −3.0 (−4.9, −1.0) ml/m2.

What about the “LA width: placebo-corrected treatment difference (95% CI)” value (Washout (Week 28)) of the same compound?
Its value is −0.8 (−1.8, 0.3) mm.

And the “LV Ejection Fraction: placebo-corrected treatment difference (95% CI)” value (Washout (Week 28))?
The value was −1 (−2, 1) %.

And the “LV Fractional Shortening: placebo-corrected treatment difference (95% CI)” value (Washout (Week 28))?
Its value is −1 (−3, 2) %.

What about the “LV end diastolic dimension: placebo-corrected treatment difference (95% CI)” value (Washout (Week 28)) of the same compound?
Its value is −0.7 (−1.6, 0.2) mm.

And the “LV end diastolic volume index: placebo-corrected treatment difference (95% CI)” value (Washout (Week 28))?
The value was −1.2 (−2.5, 0.1) ml/m2.

What about the “LV end systolic dimension: placebo-corrected treatment difference (95% CI)” value (Washout (Week 28)) of the same compound?
The value was −0.2 (−1.1, 0.8) mm.

What about the “LV end systolic volume index: placebo-corrected treatment difference (95% CI)” value (Washout (Week 28)) of the same compound?
Its value is −0.1 (−0.7, 0.5) ml/m2.

What about the “LV global circumferential strain (absolute): placebo-corrected treatment difference (95% CI)” value (Washout (Week 28)) of the same compound?
Its value is −0.8 (−2.5, 0.9) %.

What about the “LV global longitudinal strain (absolute): placebo-corrected treatment difference (95% CI)” value (Washout (Week 28)) of the same compound?
The value was −0.1 (−0.6, 0.5) %.

And the “LV mass index: placebo-corrected treatment difference (95% CI)” value (Washout (Week 28))?
The value was −3.7 (−10.2, 2.8) g/m2.

What about the “LVOT Gradient, Valsalva: placebo-corrected treatment difference (95% CI)” value (Washout (Week 28)) of the same compound?
The value was −1 (−8, 6) mmHg.

And the “LVOT Gradient, rest: placebo-corrected treatment difference (95% CI)” value (Washout (Week 28))?
Its value is −1 (−6, 7) mmHg.

And the “Lateral E/e′: placebo-corrected treatment difference (95% CI)” value (Washout (Week 28))?
Its value is −0.2 (−1.6, 1.2).

What about the “Lateral e′ velocity: placebo-corrected treatment difference (95% CI)” value (Washout (Week 28)) of the same compound?
The value was −0.2 (−0.6, 0.3) cm/s.

What about the “Peak A wave velocity: placebo-corrected treatment difference (95% CI)” value (Washout (Week 28)) of the same compound?
Its value is 3.2 (−0.5, 6.9) cm/s.

And the “Peak E wave velocity: placebo-corrected treatment difference (95% CI)” value (Washout (Week 28))?
Its value is −1.6 (−5.8, 2.7) cm/s.

And the “RV s′ velocity: placebo-corrected treatment difference (95% CI)” value (Washout (Week 28))?
The value was “+0.3 (−0.2, 0.9) cm/s”.

What about the “Septal E/e′: placebo-corrected treatment difference (95% CI)” value (Washout (Week 28)) of the same compound?
The value was −0.6 (−1.7, 0.6).

What about the “Septal e′ velocity: placebo-corrected treatment difference (95% CI)” value (Washout (Week 28)) of the same compound?
Its value is −0.0 (−0.3, 0.2) cm/s.

And the “TAPSE: placebo-corrected treatment difference (95% CI)” value (Washout (Week 28))?
The value was “+0.8 (−0.3, 1.9) mm”.

What about the “rest LV outflow tract gradient on treatment” value (end of treatment period, from 55±27 at baseline) of the same compound?
The value was 20±17 mmHg.

And the “Valsalva LV outflow tract gradient on treatment” value (end of treatment period, from 83±32 at baseline)?
The value was 35±25 mmHg.

And the “reduction of Valsalva LVOT gradient compared to baseline” value (week 2)?
The value was 25%.

And the “reduction of rest LVOT gradient compared to baseline” value (week 2)?
The value was 31%.
